Data on one substance can be found in patent US6380155B1, “Use of vasopressin receptor antagonist for regulation of ACTH release” (SmithKline Beecham plc., priority 1996, dated 2002).

In this test the test system is ob/ob mice. As to the kind of experiment: Plasma corticosterone in ob/ob mice after 7-day osmotic minipump treatment. The test is classed as in vivo, mouse. Particulars: C57BL/6J ob/ob mice, 86.4 μg/day by osmotic minipump for 7 days. The procedure: A study was performed in 4-6 weeks old C57BL/6J mice homozygous (ob/ob) for the obese gene mutation to assess the effect of [deamino-Pen^1, o-Me-Tyr^2, Arg^8]-AVP (Sigma) a non-selective peptide V1b receptor antagonist on corticosterone concentration. Osmotic minipumps (Alzet Model 1007D, 0.5 μl/h for 7 days) were filled either with the peptide (to deliver 86.4 μg/day for 7 days) or vehicle and primed at least for 4 h at 37° C. before their implantation. A group of mice heterozygous (+/?) for the obese gene mutation was also implanted with osmotic minipumps filled with vehicle alone. After 7 days of treatment blood was collected into EDTA tubes and separated plasma assayed for corticosterone concentration measurement, by using a commercial rat ^125I-corticosterone (Amersham, U.K.).

On to “[deamino-Pen^1, o-Me-Tyr^2, Arg^8]-AVP [AVP antagonist]”, for which the Plasma corticosterone concentration (n=7 per group, vehicle 228.9±63 ng/ml) worked out at 109.9 ± 19.4 ng/mL. The “Plasma corticosterone concentration (effect in words)” value (versus vehicle and lean group) is recorded as “reduced”.
